Source: patent publication US20250020635A1, “ASSAY METHODS AND USES THEREOF FOR SCREENING ALZHEIMER'S DISEASE TREATMENT COMPOUNDS” (priority 2023, published 2025)

Tests used:
[1] = Microsomal stability intrinsic clearance; type: in vitro ADME; conditions: mouse liver microsomes
Protocol: (§1) Physicochemical and ADME properties were determined using the following assays: microsomal stability intrinsic clearance (Clint) in mouse liver microsomal solution, MDCK permeability (Papp), protein binding (fu) in mouse plasma, and kinetic solubility in pH 7.4 phosphate buffer (Table 7).

[2] = system: MDCK; assay: MDCK permeability; type: in vitro ADME; conditions: estimate of intestinal absorption
Protocol: as §1

[3] = Kinetic solubility in pH 7.4 phosphate buffer; type: physicochemical
Protocol: as §1

[4] = system: HMC3 cells; assay: Microglial phagocytosis/cell health high-content assay, HMC3 cells; type: cell-based; conditions: 60 μM, 48 hrs, compared to control
Protocol: The assay introduced here is a simplified cellular imaging assay without any fixation and washing steps, while producing multiparameter measurements with high capacity using a 384-well plate format. The assay procedures include plating cells on day 1, incubating cell plates overnight before treating cells on day 2, adding pHrodo™-myelin/membrane debris to cell plates on day 3, and 20 hr later, staining cell nuclei with Hoechst-33342 for 30 min before performing high-content imaging on day 4. Three selected parameters are measured from cells: 1) mean total fluorescence intensity per cell of pHrodo™-myelin/membrane debris in phagocytosis vesicles to quantify phagocytosis; 2) cell counts per well to quantify treatment effects on proliferation and cell death; and 3) average nuclear intensity to quantify treatment-induced nuclear changes such as in apoptosis. The assay has been used on HMC3 cells (an immortalized human microglial cell line), BV2 cells (an immortalized mouse microglial cell line), and primary microglia isolated from mouse brains. For initial assay attempts, we recommend using HMC3 cells available from the ATCC.
All collected raw data are normalized to the untreated control with following formula: % of control=100×(X−Min)/(Max−Min). Factors in the formula are: X is raw data from a treated well, Max is an average measurement from pHrodo™-myelin seeded but untreated wells, and Min is an average measurement from no pHrodo™-myelin untreated wells. Normalized data are used for curve fitting that is done with the variable slope (four parameters) using the Prism software.
To ensure that the measurements reflect the steady state of compound treatment effects and cell health, the assay was set with a total compound treatment time of 48 hr, including pHrodo™-myelin/membrane debris seeding performed 20-24 hr after compound addition. […] Among many available quantitative measurements from the image analysis, we selected three parameters for the assay:
1) The mean total intensity of phagocytosis vesicles/cell—to measure phagocytosis. There are multiple parameters generated from the image analysis, including phagocytosis vesicle area, number, and various fluorescence intensity measurements. Comparing these parameters, the total fluorescence intensity of vesicles/cell is the most sensitive one and was chosen for quantifying phagocytosis.
2) The total cell counts—to measure overall cell viability, which is affected by proliferation and cell death. We chose to take 4 images/well (with the 10× objective lens) that cover about 50% of the total area of a well in a 384-well plate to represent cell count of the well.
3) The average nuclear intensity—to measure drug-induced apoptosis, with high signal indicating nuclear condescension (a sign of early apoptosis) and low signal indicating DNA degradation (a sign of later apoptosis, when activated caspases digest DNA).
A phenotypic high-content imaging assay with simultaneous measurements of phagocytosis, cell number, and nuclear intensity was used to assess both cellular pharmacology and cell health. Model cell lines BV2 (immortalized mouse microglia, a gift from Dr. Michelle Block's laboratory at IUSM) and HMC3 (immortalized human microglia, obtained from ATCC, CRL-3304) were used to provide adequate throughput. Cells were cultured in DMEM GlutaMax media (ThermoFisher) containing 10% FBS and Pen-Strep in a 37° C. 5% CO2 incubator, plated in Corning Falcon 384 well Optilux Black and clear bottom plates: 400 cells/45 μl/well (BV2 cells), 600 cells/45 μl/well (HMC3 cells) and 2000 cell/45 μl/well (primary cells), and treated with 10× serially diluted compounds (60 μM-3 nM) for 48 hrs at 37° C. […]

[5] = system: HiBit only; assay: Cellular thermal shift assay (CETSA), HiBit only control; type: cell-based, human; conditions: for HiBit only %, percent luminescence at highest dose with HiBit only compared to control (DMSO): 100 μM
[6] = Protein binding in mouse plasma; type: in vitro ADME
Protocol: as §1

[7] = molecular target: T1, His-PLCγ2 protein (Homo sapiens, UniProt P16885); assay: Affinity selection mass spectrometry (ASMS); type: binding; conditions: dose range 100-0.05 μM, PLCγ2 400 nM
T1 sequence (P16885 1-1265): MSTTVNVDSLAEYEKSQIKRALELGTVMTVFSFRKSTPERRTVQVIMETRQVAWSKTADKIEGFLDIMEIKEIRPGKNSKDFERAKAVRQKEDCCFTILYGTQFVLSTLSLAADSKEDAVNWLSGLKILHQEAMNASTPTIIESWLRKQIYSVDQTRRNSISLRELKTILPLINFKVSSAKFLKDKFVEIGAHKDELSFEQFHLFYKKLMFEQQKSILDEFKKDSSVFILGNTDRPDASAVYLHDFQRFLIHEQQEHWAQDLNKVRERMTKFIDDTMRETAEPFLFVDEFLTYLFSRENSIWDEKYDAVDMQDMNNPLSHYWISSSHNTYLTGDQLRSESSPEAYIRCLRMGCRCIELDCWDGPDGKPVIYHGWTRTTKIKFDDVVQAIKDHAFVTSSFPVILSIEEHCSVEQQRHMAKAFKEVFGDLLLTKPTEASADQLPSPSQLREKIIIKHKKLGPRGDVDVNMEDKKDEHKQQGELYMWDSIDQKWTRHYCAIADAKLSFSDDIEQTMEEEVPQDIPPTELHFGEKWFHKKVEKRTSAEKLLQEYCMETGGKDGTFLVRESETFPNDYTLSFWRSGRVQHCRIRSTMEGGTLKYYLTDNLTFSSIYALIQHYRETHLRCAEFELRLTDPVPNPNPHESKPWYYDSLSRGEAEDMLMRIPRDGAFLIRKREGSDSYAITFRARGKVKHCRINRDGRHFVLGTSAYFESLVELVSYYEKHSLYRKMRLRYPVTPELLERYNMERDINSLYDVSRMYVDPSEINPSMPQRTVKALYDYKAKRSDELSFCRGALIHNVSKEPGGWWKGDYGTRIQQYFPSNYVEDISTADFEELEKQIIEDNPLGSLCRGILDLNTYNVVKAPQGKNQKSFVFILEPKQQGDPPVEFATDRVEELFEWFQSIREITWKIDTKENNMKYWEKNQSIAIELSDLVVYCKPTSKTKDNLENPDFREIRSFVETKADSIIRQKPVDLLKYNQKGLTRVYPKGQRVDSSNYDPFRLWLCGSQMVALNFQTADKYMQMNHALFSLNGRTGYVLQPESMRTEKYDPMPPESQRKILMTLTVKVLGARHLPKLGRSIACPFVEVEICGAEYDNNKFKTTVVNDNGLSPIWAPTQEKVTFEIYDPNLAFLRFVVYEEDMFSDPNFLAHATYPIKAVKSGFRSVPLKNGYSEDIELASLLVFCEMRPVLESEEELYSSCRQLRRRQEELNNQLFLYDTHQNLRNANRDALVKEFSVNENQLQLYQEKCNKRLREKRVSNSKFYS
Protocol: Using a dose range of 100-0.05 μM in 384 well low-volume polypropylene microtiter plates, a solution of PLCγ2 (final concentration 400 nM) was transferred to biochip arrays functionalized with a Tris-Ni-NTA-presenting self-assembled monolayer to immobilize the His-tagged protein. The arrays were incubated for 90 min in a humidified chamber to prevent evaporation and allow for specific immobilization of the His-PLCγ2 protein, along with any bound small molecules. The arrays were purified by a rapid <3 second gentle wash step with deionized ultra-filtered water and dried with compressed air. ASMS was performed using the reflector positive mode on an Aβ Sciex TOF-TOF 5800 System (Aβ Sciex, Framingham, MA).

| SMILES | Clint, intrinsic clearance [1] [µL/min/mg] | Papp, MDCK permeability [2] | Kinetic solubility [3] [µM] | Ave. % Cell Count @ 60 uM HMC3 cells [4] [%] | Ave. % Phagocytosis @ 60 uM HMC3 cells [4] [%] | HiBit only %, percent luminescence at highest dose with HiBit only compared to control (DMSO) [5] [%] | HiBit only % @100 μM ([5]; Table 1, @100 μM) [%] | fu, fraction unbound [6] | target engagement, signal against background [7] |
| --- | --- | --- | --- | --- | --- | --- | --- | --- | --- |
| O=S(=O)(Nc1ccc(Br)cc1F)c1cccs1 [Compound 8] | 77.83 | 95.0 ×10−^6 cm/s | >100 | 88 | 104 | 44 | 44 | 0.0193 | – |
| Cc1cc(C)c(S(=O)(=O)Nc2cccc(C(F)(F)F)c2)c(C)c1 [Compound 1, 2,4,6-trimethyl-N-(meta-3-trifluoromethyl-phenyl)-benzenesulfonamide, reference compound] | – | – | 21 to 40 | 3 | 0 | – | – | – | neither 1 or 2 indicated substantial evidence of target engagement |
| Cc1cc(C)c(S(=O)(=O)NC2CCCNC2)c(C)c1 (stereo not drawn) [Compound 11] | – | – | – | 65 | 146 | 93 | – | – | – |
| Cc1cc(C)c(S(=O)(=O)Nc2ccccc2C(F)(F)F)c(C)c1 [Compound 2, o-3M3FBS, reference compound] | – | – | – | 103 | 99 | – | – | – | neither 1 or 2 indicated substantial evidence of target engagement |
